Test results: US20050123917A1, “Method for characterising and/or identifying active mechanisms of antimicrobial test substances” (priority 2001, published 2005)
Values after ≈ are worked out from the molar mass of the structure shown. Read-outs that look alike come from different tables or passages of the source. Starred links: 1 amine or outer side, 2 acyl side, 3 side chain; linkers in the order of their positions; H or OH if unused. Positions of bridges follow the written chain, without caps; N, C: chain ends. Non-standard residues stand in square brackets, D forms with d. Residues, ends and D or L forms follow the SMILES beside them. Chains are numbered I, II in the order given. Actinocin(9to1) = Cc1c2oc3c(C)ccc(C(=O)[*:1])c3nc-2c(C(=O)[*:2])c(N)c1=O; NMeV = CN[C@H](C(=O)O)C(C)C; Orn = NCCC[C@H](N)C(=O)O; Sar = CNCC(=O)O

Test system: Bacillus subtilis 168
Assay: Determination of the minimum inhibiting agent concentration (MIC)
Type: cell-based
Experimental: The test substance may be an inhibiting agent. The concentration of inhibiting agent with which the bacterial culture is treated should preferably be in the range of 0.1× to 20× the minimum inhibiting agent concentration (MIC) for the test substance. The minimum inhibiting agent concentration is the minimum concentration of an antibiotic which inhibits the growth of a test germ over a period of 18-24 hours. The inhibiting agent concentration can therefore be determined according to standard microbiological procedures (see for example The-National Committee for Clinical Laboratory Standards. Methods for dilution antimicrobial susceptibility tests for bacteria that grow aerobically; approved standard-fifth edition. NCCLS document M7-A5 [ISBN 1-56238-394-9]. NCCLS, 940 West Valley Road, Suite 1400, Wayne, Pa. 19087-1898 USA, 2000.). The test spectra are recorded from a microbial culture that has been treated with the inhibiting agent in one, or preferably in several concentrations.
For the production of an overnight culture, 22 ml of Belitsky Minimal Medium (Stuhlke et al. (1993) Temporal activation of beta-glucauase synthesis in Bacillus subtilis is mediated by the GTP pool. J. Gen. Microbiol. 1993 Sep; 139 (pt 9):2041-5) was injected with an aliquot of the test germ Bacillus subtilis 168 from a permanent culture stored at −80° C., and incubated at 37° C. and 200 rpm.

[1] = B. subtilis 168, Belitsky Minimal Medium, 18-24 hrs at 37° C.
[2] = Bacillus subtilis, B. subtilis 168, Belitsky Minimal Medium, 18-24 hrs at 37° C., read-out: MIC

Compound | MIC [1] [µg/mL] | MIC [2] [µg/mL] | other results
O=c1[nH]c(=O)n([C@H]2C[C@H](O)[C@@H](CO)O2)cc1F [5-fluor-2-desoxyuridine] | 0.25 (≈ 1.02 µM) |  | 
O=c1[nH]cc(F)c(=O)[nH]1 [5-fluoro-uracile] |  | 0.25 (≈ 1.92 µM) | 
N[C@@H]1CONC1=O [D-cycloserine] | 64 (≈ 627 µM) |  | 
Cc1c2oc3c(C)ccc(C(=O)N[C@@H]4C(=O)N[C@H](C(C)C)C(=O)N5CCC[C@H]5C(=O)N(C)CC(=O)N(C)[C@@H](C(C)C)C(=O)O[C@@H]4C)c3nc-2c(C(=O)N[C@@H]2C(=O)N[C@H](C(C)C)C(=O)N3CCC[C@H]3C(=O)N(C)CC(=O)N(C)[C@@H](C(C)C)C(=O)O[C@@H]2C)c(N)c1=O [actinomycin D] (I: T[dV]P[Sar][NMeV] / II: T[dV]P[Sar][NMeV]; ester I:1-I:C, II:1-II:C; linker I:N-II:N via Actinocin(9to1)) | 1 (≈ 0.797 µM) |  | 
[N-]=[N+]=CC(=O)OC[C@H](N)C(=O)O [azaserine] |  | 4 (≈ 23.1 µM) | 
CC[C@H]1OC(=O)[C@H](C)[C@@H](O[C@H]2C[C@@](C)(OC)[C@@H](O)[C@H](C)O2)[C@H](C)[C@@H](O[C@@H]2O[C@H](C)C[C@H](N(C)C)[C@H]2O)[C@](C)(O)C[C@@H](C)CN(C)[C@H](C)[C@@H](O)[C@]1(C)O [azithromycin] |  | 1 (≈ 1.34 µM) | 
CO[C@@]1(NC(=O)Cc2cccs2)C(=O)N2C(C(=O)O)=C(COC(N)=O)CS[C@@H]21 [cefoxitin] |  | 2 (≈ 4.68 µM) | 
C/C=C/C/C=C/CCC(=O)[C@H]1O[C@H]1C(N)=O [cerulenin] |  | 16 (≈ 71.7 µM) | 
O=C(N[C@H](CO)[C@H](O)c1ccc([N+](=O)[O-])cc1)C(Cl)Cl [chloramphenicol] |  | 4 (≈ 12.4 µM) | 
CC[C@H]1OC(=O)[C@H](C)[C@@H](O[C@H]2C[C@@](C)(OC)[C@@H](O)[C@H](C)O2)[C@H](C)[C@@H](O[C@@H]2O[C@H](C)C[C@H](N(C)C)[C@H]2O)[C@](C)(OC)C[C@@H](C)C(=O)[C@H](C)[C@@H](O)[C@]1(C)O [clarithromycin] |  | 0.0625 (≈ 0.0836 µM) | 
CCC[C@@H]1C[C@@H](C(=O)N[C@@H]([C@H]2O[C@H](SC)[C@H](O)[C@@H](O)[C@H]2O)[C@H](C)Cl)N(C)C1 [clindamycin] |  | 2 (≈ 4.71 µM) | 
COc1cccc2c1C(=O)c1c(O)c3c(c(O)c1C2=O)C[C@@](O)(C(=O)CO)C[C@@H]3O[C@H]1C[C@H](N)[C@H](O)[C@H](C)O1 [doxorubicin] |  | 8 (≈ 14.7 µM) | 
CC[C@H]1OC(=O)[C@H](C)[C@@H](O[C@H]2C[C@@](C)(OC)[C@@H](O)[C@H](C)O2)[C@H](C)[C@@H](O[C@@H]2O[C@H](C)C[C@H](N(C)C)[C@H]2O)[C@](C)(O)C[C@@H](C)C(=O)[C@H](C)[C@@H](O)[C@]1(C)O [erythromycin] |  | 0.5 (≈ 0.681 µM) | 
CC[n+]1c(-c2ccccc2)c2cc(N)ccc2c2ccc(N)cc21.[Br-] [ethidiumbromid] | 4 |  | 
CC(=O)O[C@H]1C[C@@]2(C)[C@@H](C[C@@H](O)[C@H]3[C@@]4(C)CC[C@@H](O)[C@@H](C)[C@@H]4CC[C@@]32C)/C1=C(\CCC=C(C)C)C(=O)O [fusidic acid] |  | 0.5 (≈ 0.968 µM) | 
CC(C)C[C@@H]1NC(=O)[C@H](CCCN)NC(=O)[C@H](C(C)C)NC(=O)[C@@H]2CCCN2C(=O)[C@@H](Cc2ccccc2)NC(=O)[C@H](CC(C)C)NC(=O)[C@H](CCCN)NC(=O)[C@H](C(C)C)NC(=O)[C@@H]2CCCN2C(=O)[C@@H](Cc2ccccc2)NC1=O [gramicidin S] (cyclo(V[Orn]L[dF]PV[Orn]L[dF]P)) | 1 (≈ 0.876 µM) |  | 
NC[C@H]1O[C@H](O[C@H]2[C@H](O)[C@@H](O[C@H]3O[C@H](CO)[C@@H](O)[C@H](N)[C@H]3O)[C@H](N)C[C@@H]2N)[C@H](O)[C@@H](O)[C@@H]1O [kanamycin] |  | 0.5 (≈ 1.03 µM) | 
CC[C@@H](C(=O)[C@@H](C)[C@@H](O)[C@H](C)CCc1ccc(C)c(O)c1C(=O)O)[C@H]1O[C@](CC)([C@H]2CC[C@](O)(CC)[C@H](C)O2)C[C@@H]1C [lasalocid] |  | 1 (≈ 1.69 µM) | 
COc1cccc(OC)c1C(=O)N[C@@H]1C(=O)N2[C@@H]1SC(C)(C)[C@@H]2C(=O)O [methicillin] |  | 0.125 (≈ 0.329 µM) | 
CO[C@@]12[C@H](COC(N)=O)C3=C(C(=O)C(C)=C(N)C3=O)N1C[C@@H]1N[C@@H]12 [mitomycin C] | 0.25 (≈ 0.748 µM) |  | 
CC[C@@]1([C@@H]2O[C@@H]([C@H]3O[C@@](O)(CO)[C@H](C)C[C@@H]3C)C[C@@H]2C)CC[C@H]([C@]2(C)CC[C@]3(C[C@H](O)[C@@H](C)[C@@H]([C@@H](C)[C@@H](OC)[C@H](C)C(=O)O)O3)O2)O1 [monensin] |  | 4 (≈ 5.96 µM) | 
CO[C@@]1(NC(=O)C(C(=O)O)c2ccc(O)cc2)C(=O)N2C(C(=O)O)=C(CSc3nnnn3C)CO[C@@H]21 (some centres unmarked) [moxalactam] |  | 4 (≈ 7.69 µM) | 
C/C(=C\C(=O)OCCCCCCCCC(=O)O)C[C@@H]1OC[C@H](C[C@@H]2O[C@H]2[C@@H](C)[C@H](C)O)[C@@H](O)[C@H]1O [mupirocin] |  | 0.0625 (≈ 0.125 µM) | 
CCn1cc(C(=O)O)c(=O)c2ccc(C)nc21 [nalidixic acid] |  | 32 (≈ 138 µM) | 

Compound | MIC [1] [µg/mL] | MIC [2] [µg/mL] | other results
CO[C@@H]1C[C@@H](C[C@H]2CC[C@H](C)[C@H]([C@@H](C)C(=O)O)O2)O[C@]2(O[C@](C)([C@H]3CC[C@@](C)([C@@H]4O[C@@H]([C@H]5O[C@@](O)(CO)[C@H](C)C[C@@H]5C)C[C@@H]4C)O3)C[C@H]2C)[C@@H]1C [nigericin] |  | 1 (≈ 1.38 µM) | 
O=C1CN(/N=C/c2ccc([N+](=O)[O-])o2)C(=O)N1 [nitrofurantoin] |  | 16 (≈ 67.2 µM) | 
CO[C@@H]1[C@@H](OC(N)=O)[C@@H](O)[C@H](Oc2ccc3c(O)c(NC(=O)c4ccc(O)c(CC=C(C)C)c4)c(=O)oc3c2C)OC1(C)C [novobiocin] |  | 2 (≈ 3.26 µM) | 
Cc1onc(-c2ccccc2)c1C(=O)N[C@@H]1C(=O)N2[C@@H]1SC(C)(C)[C@@H]2C(=O)O [oxacillin] |  | 0.5 (≈ 1.25 µM) | 
CC1(C)S[C@@H]2[C@H](NC(=O)Cc3ccccc3)C(=O)N2[C@H]1C(=O)O [penicillin G] | 4 (≈ 12 µM) |  | 
Nc1ccc2cc3ccc(N)cc3nc2c1 [proflavin] |  | 8 (≈ 38.2 µM) | 
COc1ccc(C[C@H](N)C(=O)N[C@H]2[C@@H](O)[C@H](n3cnc4c(N(C)C)ncnc43)O[C@@H]2CO)cc1 [puromycin] |  | 8 (≈ 17 µM) | 
CO[C@H]1/C=C/O[C@@]2(C)Oc3c(C)c(O)c4c(O)c(c(/C=N/N5CCN(C)CC5)c(O)c4c3C2=O)NC(=O)/C(C)=C\C=C\[C@H](C)[C@H](O)[C@@H](C)[C@@H](O)[C@@H](C)[C@H](OC(C)=O)[C@@H]1C [rifampicin] |  | 0.25 (≈ 0.304 µM) | 
CN[C@@H]1[C@H](O)[C@H](NC)[C@H]2O[C@@]3(O)C(=O)C[C@@H](C)O[C@H]3O[C@@H]2[C@H]1O [spectinomycin] |  | 16 (≈ 48.1 µM) | 
[H]/N=C(/N)N[C@H]1[C@H](O)[C@@H](O)[C@H](O[C@@H]2O[C@@H](C)[C@](O)(C=O)[C@H]2O[C@@H]2O[C@@H](CO)[C@H](O)[C@@H](O)[C@@H]2NC)[C@@H](N/C(N)=N\[H])[C@@H]1O [streptomycin] |  | 128 (≈ 220 µM) | 
CN(C)[C@@H]1C(=O)C(C(N)=O)=C(O)[C@@]2(O)C(=O)C3=C(O)c4c(O)cccc4[C@@](C)(O)[C@H]3C[C@@H]12 [tetracyclin] | 16 (≈ 36 µM) |  | 
NC[C@H]1O[C@H](O[C@H]2[C@H](O)[C@@H](O[C@H]3O[C@H](CO)[C@@H](O)[C@H](N)[C@H]3O)[C@H](N)C[C@@H]2N)[C@H](N)C[C@@H]1O [tobramycin] |  | 0.0625 (≈ 0.134 µM) | 
COc1cc(Cc2cnc(N)nc2N)cc(OC)c1OC [trimethoprim] |  | 0.5 (≈ 1.72 µM) | 
CN[C@H](CC(C)C)C(=O)N[C@H]1C(=O)N[C@@H](CC(N)=O)C(=O)N[C@H]2C(=O)N[C@H]3C(=O)N[C@H](C(=O)N[C@H](C(=O)O)c4cc(O)cc(O)c4-c4cc3ccc4O)[C@H](O)c3ccc(c(Cl)c3)Oc3cc2cc(c3O[C@@H]2O[C@H](CO)[C@@H](O)[C@H](O)[C@H]2O[C@H]2C[C@](C)(N)[C@H](O)[C@H](C)O2)Oc2ccc(cc2Cl)[C@H]1O [vancomycin] |  |  | MIC (Bacillus subtilis, 168): 0.25 µg/mL (≈ 0.173 µM)
enniatin | 16 |  | 
gentamicin | 0.125 |  | 
gramicidin A | 4 |  | 
mersacidin | 16 |  | 
neomycin | 0.125 |  | 
polymyxin B-sulfate | 16 |  | 
ramoplanin | 1 |  | 
ristocetin | 0.5 |  | 
teichoplanin | 0.125 |  | 
